Source: BindingDB's records for doi:10.7270/Q2BC3WXH (University of Dundee, 2010)

Target: Carbonic anhydrase 2 (Bos taurus, UniProt P00921)
Assay: SPR biosensor assay Biacore T100
Settings: 25 °C; for kon: pH 7.4, read-out: kon (M-1-s-1); for Kd: pH 7.4
Description: SPR biosensor assay Biacore T100

Carbonic anhydrase 2, sequence (P00921 whole entry): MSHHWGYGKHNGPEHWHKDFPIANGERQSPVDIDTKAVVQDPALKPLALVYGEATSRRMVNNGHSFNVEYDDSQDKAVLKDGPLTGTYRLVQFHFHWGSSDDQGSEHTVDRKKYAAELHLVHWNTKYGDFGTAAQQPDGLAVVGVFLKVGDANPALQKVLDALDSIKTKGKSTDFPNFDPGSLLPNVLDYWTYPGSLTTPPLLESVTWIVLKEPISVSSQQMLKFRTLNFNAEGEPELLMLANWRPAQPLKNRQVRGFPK

| SMILES | kon [M⁻¹ s⁻¹] | Kd [nM] | koff (pH 7.4, read-out: koff (s-1)) [s⁻¹] |
| --- | --- | --- | --- |
| CCCn1c(=O)[nH]c2cc(S(N)(=O)=O)ccc21 [2-oxo-1-propyl-2,3-dihydro-1H-1,3-benzodiazole-5-sulfonamide] | 93500 | 197 | – |
| NS(=O)(=O)c1ccc(F)cc1F [2,4-difluorobenzene-1-sulfonamide] | 107000 | 394 | – |
| Cc1ccccc1S(N)(=O)=O [2-methylbenzene-1-sulfonamide] | 240000 | 2180 | – |
| O=C1NNS(=O)(=O)c2ccccc21 [1,4-dioxo-1,2,3,4-tetrahydro-1,2,3-benzothiadiazin-1-ium-1-olate] | 1.94e+06 | 38900 | – |
| Nc1ccc(S(N)(=O)=O)cn1 [6-aminopyridine-3-sulfonamide] | 203000 | 10800 | – |
| NS(=O)(=O)c1ccc2c(c1)OCCO2 [2,3-dihydro-1,4-benzodioxine-6-sulfonamide] | 109000 | 817 | – |
| NS(=O)(=O)c1cc(Cl)cc(Cl)c1 [3,5-dichlorobenzene-1-sulfonamide] | 259000 | 287 | – |

More lines, in order of falling Kd, values ahead:

| kon [M⁻¹ s⁻¹] | Kd [nM] | koff (pH 7.4, read-out: koff (s-1)) [s⁻¹] | SMILES |
| --- | --- | --- | --- |
| 164000 | 35300 | 4.65 | Cn1cnc(S(N)(=O)=O)c1 [1-methyl-1H-imidazole-4-sulfonamide] |
| 58500 | 3110 | – | NS(=O)(=O)c1ccc2c(c1)CCN2 [2,3-dihydro-1H-indole-5-sulfonamide] |
| 19600 | 383 | – | Nc1nc2ccc(S(N)(=O)=O)cc2s1 [2-amino-1,3-benzothiazole-6-sulfonamide] |
| 76300 | 96.8 | – | Cc1c(Cl)cc(F)cc1S(N)(=O)=O [3-chloro-5-fluoro-2-methylbenzene-1-sulfonamide] |
